# In patent US12246009B2, “Compositions and methods for treating neurodegenerative, myodegenerative, and lysosomal storage disorders” (GEORGETOWN UNIVERSITY, priority 2018, dated 2025):
# “Also recorded” adds a separate entry of the source.
# Legend:
# B35 cells = assay: MTT assay, cell viability; assay type: cell-based, rat; settings: 1 μM, 16 hours of treatment, compared to control
# Protocol: Rat neuroblastoma B35 cells were grown in Dulbecco's Modified Eagle's Medium (DMEM) with 10% Fetal Bovine Serum (FBS) and 1% penicillin/streptomycin and incubated at 37° C. with 5% CO2. For the experiments, cells were transferred to 12-well plates (Cat. #150628, ThermoFisher, Waltham, MA) and grown to at least 70% confluence. Transient transfection was performed with 3 μg P301 L tau (Cat. #30145, Addgene) cDNA or 3 μg human α-synuclein cDNA using Fugene HD transfection reagent (Cat. #E2311, Promega, Madison WI) for 24 hours. Cells were treated with 1 mM, 100 μM, 10 μM, 1 μM, 0.1 μM, 0.01 μM, and 0.001 μM dissolved in DMSO or an equivalent 5 ul of DMSO for 5 hours. Cell culture media was collected and cells were harvested using sodium-tris, EDTA, NP-40 (STEN) buffer and centrifuged at 10,000×g for 20 minutes at 4′C and supernatant was collected. Cell viability was determined via lactate dehydrogenase assay (Cat. #88954, Thermofisher) and MTT assay (Cat. #V13154, Thermofisher). […]
# To measure cell viability, cells were incubated with 500 μL of Dulbecco's Modified Eagle's Medium (DMEM) containing 50 μL of (3-[4,5-dimethylthiazol-2-yl]-2,5-diphenyl-tetrazolium bromide (MTT)) for 4 hours at 37° C. and 5% CO2. […] Absorbance was read against a blank containing 125 uL of media and MTT, and 250 uL of DMS at 570 nm.
# pTau (181) = pTau (181) ELISA in pTau transfected B35 cells; assay type: cell-based, rat; settings: 24 hour transfection
# α-synuclein = α-synuclein ELISA in α-synuclein-transfected B35 cells; assay type: cell-based, rat; settings: transfected B35 cell culture model, doses 10 uM-1 mM
# Protocol: Rat neuroblastoma B35 cells were grown in Dulbecco's Modified Eagle's Medium (DMEM) with 10% Fetal Bovine Serum (FBS) and 1% penicillin/streptomycin and incubated at 37° C. with 5% CO2. For the experiments, cells were transferred to 12-well plates (Cat. #150628, ThermoFisher, Waltham, MA) and grown to at least 70% confluence. Transient transfection was performed with 3 μg P301 L tau (Cat. #30145, Addgene) cDNA or 3 μg human α-synuclein cDNA using Fugene HD transfection reagent (Cat. #E2311, Promega, Madison WI) for 24 hours. Cells were treated with 1 mM, 100 μM, 10 μM, 1 μM, 0.1 μM, 0.01 μM, and 0.001 μM dissolved in DMSO or an equivalent 5 ul of DMSO for 5 hours. Cell culture media was collected and cells were harvested using sodium-tris, EDTA, NP-40 (STEN) buffer and centrifuged at 10,000×g for 20 minutes at 4′C and supernatant was collected. Cell viability was determined via lactate dehydrogenase assay (Cat. #88954, Thermofisher) and MTT assay (Cat. #V13154, Thermofisher). Protein was extracted by removing culture medium and adding 0.2 ml 1× STEN buffer (50 mM. Tris (pH 7.6), 150 mM NaCl, 2 mM EDTA, 0.2% NP-40, 0.2% BSA, 20 mM. PMSF and protease cocktail inhibitor) to cell layer and incubated on ice for 10 minutes. The bottom of the well was scraped and allowed to incubate on ice for an additional 10 minutes. Cell lysates were collected, stored at −80° C., and used for additional analyses.
# To perform transient transfection of α-synuclein into the rat neuroblastoma B35 cells FuGene® HD Transfection Reagent (Promega Corporation, Madison, WI) was used. Cells were grown in 12-well dishes. […]
# Human α-synuclein and p-tau ELISA were performed using 50 μl (1 μg/4 μl) of cell lysates detected with 50 μl primary antibody (3 h) and 100 μl anti-rabbit secondary antibody (30 min) at RT. α-Synuclein levels were measured using human specific ELISA (Invitrogen Inc., Carlsbad, CA) according to manufacturer's protocols. Tau was measured using specific tau at serine 396 according to manufacturer's protocol. […]
# Tau (HT7) = Tau (HT7) in Tau transgenic mice; assay type: in vivo, mouse; settings: seven days of treatment, 1.25 mg/kg and 2.5 mg/kg
# phosphorylated Tau (AT8) = assay: Phosphorylated Tau (AT8) immunoblot in rTG4510 mice; assay type: in vivo, mouse; settings: all three doses (1.25, 2.5, 5 mg/kg) i.p., 7 days
# pTau (191) = assay: pTau in CamP301L mice; assay type: in vivo, mouse; settings: 2.5 mg/kg or 5 mg/kg
# Ab1 = target: T1, Ab1 (Mus musculus, UniProt P00520); assay: Activated (phosphorylated) Ab1 (245) immunoblot in transgenic APP mice; assay type: in vivo; settings: i.p., 21 days
# T1 construct: Brains from treated mice compared with DMSO treated mice were homogenized in STEN lysis buffer; from tissue; host or cells: brain of rTg4510 or TgAPP mice
# [1] = test system: human phosphorylated tau (Ser396); assay: Human phosphorylated tau (Ser396) ELISA in transgenic APP mice; assay type: in vivo, mouse; settings: 2.5 mg/kg i.p., 21 days
# APP mice = assay: Morris Water Maze test in APP mice; assay type: in vivo, mouse; settings: 1.25 mg/kg, trend, no significant difference between groups
# T1 sequence (P00520 whole entry): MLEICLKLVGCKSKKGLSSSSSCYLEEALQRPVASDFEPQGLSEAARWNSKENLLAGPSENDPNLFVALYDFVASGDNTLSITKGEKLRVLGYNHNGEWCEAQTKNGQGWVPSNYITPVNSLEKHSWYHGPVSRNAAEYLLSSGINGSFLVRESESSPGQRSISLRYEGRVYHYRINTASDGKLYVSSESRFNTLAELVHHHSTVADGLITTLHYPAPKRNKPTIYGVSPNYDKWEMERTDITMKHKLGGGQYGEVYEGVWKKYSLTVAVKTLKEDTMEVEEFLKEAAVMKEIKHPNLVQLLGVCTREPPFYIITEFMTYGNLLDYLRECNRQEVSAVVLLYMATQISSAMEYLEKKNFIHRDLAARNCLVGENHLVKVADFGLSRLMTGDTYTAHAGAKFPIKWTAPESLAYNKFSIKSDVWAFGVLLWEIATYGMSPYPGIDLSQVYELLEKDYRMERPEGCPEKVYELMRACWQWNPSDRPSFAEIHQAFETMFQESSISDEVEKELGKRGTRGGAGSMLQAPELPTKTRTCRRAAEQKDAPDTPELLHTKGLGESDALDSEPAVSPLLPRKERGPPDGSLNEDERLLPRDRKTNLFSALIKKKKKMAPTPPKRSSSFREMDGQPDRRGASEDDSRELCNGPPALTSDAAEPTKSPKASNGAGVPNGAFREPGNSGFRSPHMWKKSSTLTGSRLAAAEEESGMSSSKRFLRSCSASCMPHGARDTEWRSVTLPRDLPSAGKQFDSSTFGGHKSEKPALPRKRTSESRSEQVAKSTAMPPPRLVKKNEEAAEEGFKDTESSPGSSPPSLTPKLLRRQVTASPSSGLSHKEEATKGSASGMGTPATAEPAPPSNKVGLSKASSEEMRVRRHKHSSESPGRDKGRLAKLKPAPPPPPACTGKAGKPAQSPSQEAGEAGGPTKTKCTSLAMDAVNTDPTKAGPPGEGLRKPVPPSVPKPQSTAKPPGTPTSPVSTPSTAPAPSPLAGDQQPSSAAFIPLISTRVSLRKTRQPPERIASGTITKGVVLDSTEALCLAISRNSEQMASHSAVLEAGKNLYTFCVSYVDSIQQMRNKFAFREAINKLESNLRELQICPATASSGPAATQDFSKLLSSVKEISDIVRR
smiles,measurement,setting,value
"Cc1cccc(-c2cc3nccc(Nc4ccccc4)c3s2)c1 [BK40143, N-Phenyl-2-(m-tolyl)thieno[3,2-b]pyridin-7-amine]","MTT, neuroprotective effect",B35 cells,increase
same,pTau (181) levels,pTau (181),reduces pTau (181) levels
same,level of alpha-synuclein,α-synuclein,appear to reduce the level of alpha-synuclein
same,Tau (HT7) level,Tau (HT7),significantly reduced
same,"reduction of phosphorylated Tau (AT8), immunoblot",phosphorylated Tau (AT8),41-49%
same,pTau (191) level,pTau (191),reduced
same,activated (phosphorylated) Ab1 (245),Ab1,does not engage Ab1; also recorded: did not engage Ab1
same,reduction of human phosphorylated tau (Ser396),[1],over 80%
same,"distance travelled before first entry to the platform, Morris Water Maze",APP mice,lower distance travelled before the first entry
same,"latency to the first entry, Morris Water Maze",APP mice,lower latency to first entry
same,"number of platform entries, Morris Water Maze",APP mice,higher numbers of platform entries
